The results in this text go back to PubChem BioAssay AID330 (DTP/NCI, 2004).

Each structure is given as a SMILES string. “And” between values parts separate entries of the source, which are not always exact repeats. Identical values can stand only once. Toxic doses and inconclusive results are not listed.

For the test, the system named is P388 leukemia ip, CD2F1 mice, survival T/C. The experiment in a line: NCI In Vivo Anticancer Drug Screen. Data for tumor model P388 Leukemia (intraperitoneal) in CD2F1 (CDF1) mice. Conditions: endpoint: median survival time, higher = longer survival. The procedure, abridged:
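Mice carrying the transplanted tumor received test compound or vehicle. Survival was recorded in each group, and the value is the treated-group measurement divided by that of the vehicle-treated control group.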

[1] abbreviates: dose: 50.0 mg/kg/injection, schedule: Q01DX009 (ip), vehicle: saline with Tween-80.
[2] abbreviates: dose: 100.0 mg/kg/injection, schedule: Q01DX009 (ip), vehicle: saline with Tween-80.
[3] abbreviates: dose: 200.0 mg/kg/injection, schedule: Q01DX009 (ip), vehicle: saline with Tween-80.
The mark [4] stands for this setting: dose: 100.0 mg/kg/injection, schedule: Q01DX009 (ip), vehicle: distilled water + Tween-80.
The mark [5] stands for this setting: dose: 200.0 mg/kg/injection, schedule: Q01DX009 (ip), vehicle: distilled water + Tween-80.
Where [6] appears, read: dose: 50.0 mg/kg/injection, schedule: Q01DX005 (ip), vehicle: Klucel (hydroxypropylcellulose) (HPC).
[7] abbreviates: dose: 100.0 mg/kg/injection, schedule: Q01DX005 (ip), vehicle: Klucel (hydroxypropylcellulose) (HPC).
[8] abbreviates: dose: 200.0 mg/kg/injection, schedule: Q01DX005 (ip), vehicle: Klucel (hydroxypropylcellulose) (HPC).
The mark [9] stands for this setting: dose: 50.0 mg/kg/injection, schedule: Q01DX005 (ip), vehicle: saline with Tween-80.
The mark [10] stands for this setting: dose: 100.0 mg/kg/injection, schedule: Q01DX005 (ip), vehicle: saline with Tween-80.
The mark [11] stands for this setting: dose: 200.0 mg/kg/injection, schedule: Q01DX005 (ip), vehicle: saline with Tween-80.

Regarding `CCCOC1=C(N2CC2)C(=O)C(OCCC)=C(N2CC2)C1=O`, the T/C runs as follows: (dose: 0.89 mg/kg/injection, schedule: Q01DX009 (ip), vehicle: saline with Tween-80) 106 % of control; (dose: 3.0 mg/kg/injection, schedule: Q01DX009 (ip), vehicle: saline with Tween-80) 179 % of control; (dose: 4.0 mg/kg/injection, schedule: Q01DX009 (ip), vehicle: saline with Tween-80) 181 % of control; (dose: 6.0 mg/kg/injection, schedule: Q01DX009 (ip), vehicle: saline with Tween-80) 186 % of control; (dose: 6.25 mg/kg/injection, schedule: Q01DX009 (ip), vehicle: saline with Tween-80) 190 % of control; (dose: 9.0 mg/kg/injection, schedule: Q01DX009 (ip), vehicle: saline with Tween-80) 109 % of control.

With `Clc1ccccc1CSCc1c(CSCc2ccccc2Cl)c(CSCc2ccccc2Cl)c(CSCc2ccccc2Cl)c(CSCc2ccccc2Cl)c1CSCc1ccccc1Cl`, the T/C was 102 % of control under setting [1], 100 % of control under setting [2] and 100 % of control under setting [3].

As for `CC(=O)Oc1ccc(OC(C)=O)c2c1CC1OC1C2` (stereo not drawn), the T/C (dose: 3.13 mg/kg/injection, schedule: Q01DX009 (ip), vehicle: water) is 100 % of control; the T/C (dose: 6.25 mg/kg/injection, schedule: Q01DX009 (ip), vehicle: water) is 98 % of control; the T/C (dose: 12.5 mg/kg/injection, schedule: Q01DX009 (ip), vehicle: water) is 100 % of control; the T/C (dose: 25.0 mg/kg/injection, schedule: Q01DX009 (ip), vehicle: water) is 90 % of control; the T/C (dose: 50.0 mg/kg/injection, schedule: Q01DX009 (ip), vehicle: water) is 100 % of control; the T/C under setting [4] was 111 % of control. Besides, the T/C under setting [5] was 111 % of control and the T/C (dose: 400.0 mg/kg/injection, schedule: Q01DX009 (ip), vehicle: distilled water + Tween-80) is 100 % of control.

As to `COc1ccc(-c2c(O)c3cccnc3[nH]c2=O)cc1`, the T/C reads like this: (dose: 50.0 mg/kg/injection, schedule: Q01DX009 (ip), vehicle: saline) 102 % of control; (dose: 100.0 mg/kg/injection, schedule: Q01DX009 (ip), vehicle: saline) 104 % of control; (dose: 200.0 mg/kg/injection, schedule: Q01DX009 (ip), vehicle: saline) 102 % of control.

For `O=C1OCCOCCOC(=O)C(=O)OCCOCCOC1=O`, the T/C reads like this: (dose: 100.0 mg/kg/injection, schedule: Q04DX003 (ip), vehicle: Klucel (hydroxypropylcellulose) (HPC)) 98 % of control; (dose: 200.0 mg/kg/injection, schedule: Q04DX003 (ip), vehicle: Klucel (hydroxypropylcellulose) (HPC)) 100 % of control; (dose: 400.0 mg/kg/injection, schedule: Q04DX003 (ip), vehicle: Klucel (hydroxypropylcellulose) (HPC)) 98 % of control.

For the compound `Clc1ccc(CSCc2c(CSCc3ccc(Cl)cc3)c(CSCc3ccc(Cl)cc3)c(CSCc3ccc(Cl)cc3)c(CSCc3ccc(Cl)cc3)c2CSCc2ccc(Cl)cc2)cc1`, the T/C under setting [1] was 102 % of control, the T/C under setting [2] is 102 % of control and the T/C under setting [3] was 99 % of control.

Take `C[As](C)[Se]CC1OC2OC(C)(C)OC2C2OC(C)(C)OC12` (stereo not drawn): the T/C is, setting by setting: (dose: 50.0 mg/kg/injection, schedule: Q01DX009 (ip), vehicle: Klucel (hydroxypropylcellulose) (HPC)) 89 % of control; (dose: 100.0 mg/kg/injection, schedule: Q01DX009 (ip), vehicle: Klucel (hydroxypropylcellulose) (HPC)) 90 % of control; (dose: 200.0 mg/kg/injection, schedule: Q01DX009 (ip), vehicle: Klucel (hydroxypropylcellulose) (HPC)) 92 % of control.

For the compound `O=C1Cc2ccccc2C(O)=C1c1cnccn1`, the T/C is, setting by setting: (dose: 15.0 mg/kg/injection, schedule: Q01DX005 (ip), vehicle: saline with Tween-80) 93 % of control; (dose: 30.0 mg/kg/injection, schedule: Q01DX005 (ip), vehicle: saline with Tween-80) 99 % of control; (dose: 60.0 mg/kg/injection, schedule: Q01DX005 (ip), vehicle: saline with Tween-80) 101 % of control and 102 % of control.

Regarding `CC(=O)N/N=C(\C(=O)OC(=NC1CCCCC1)NC1CCCCC1)c1ccccc1`, the T/C by setting is: under setting [6], 87 % of control; under setting [7], 87 % of control; under setting [8], 91 % of control.

As for `CSc1nc(COC(=O)NC(C)C)c(COC(=O)NC(C)C)n1-c1ccccc1`, the T/C is 111 % of control (dose: 12.5 mg/kg/injection, schedule: Q01DX005 (ip), vehicle: Klucel + Tween-80); 101 % of control (dose: 25.0 mg/kg/injection, schedule: Q01DX005 (ip), vehicle: Klucel + Tween-80); 95 % of control (dose: 50.0 mg/kg/injection, schedule: Q01DX005 (ip), vehicle: Klucel + Tween-80); 97 % of control (dose: 100.0 mg/kg/injection, schedule: Q01DX005 (ip), vehicle: Klucel + Tween-80); 90 % of control (dose: 200.0 mg/kg/injection, schedule: Q01DX005 (ip), vehicle: Klucel + Tween-80); 100 % of control (dose: 400.0 mg/kg/injection, schedule: Q01DX005 (ip), vehicle: Klucel + Tween-80).

Take `O=S(=O)(O)c1cccc(/C(=N\Nc2ccccn2)c2ccccn2)c1`: the T/C is, setting by setting: under setting [1], 100 % of control; under setting [2], 102 % of control; under setting [3], 100 % of control.

As to `CCCOc1cc2c(cc1C(C)(C)c1ccc(OC)cc1)OCO2`, the T/C runs as follows: (dose: 50.0 mg/kg/injection, schedule: Q01DX005 (ip), vehicle: saline + Tween-80 + alcohol) 102 % of control; (dose: 100.0 mg/kg/injection, schedule: Q01DX005 (ip), vehicle: saline + Tween-80 + alcohol) 111 % of control; (dose: 200.0 mg/kg/injection, schedule: Q01DX005 (ip), vehicle: saline + Tween-80 + alcohol) 95 % of control.

Turning to `COC(=O)[C@H]1[C@H]2C[C@@H]3c4[nH]c5cc(OC)ccc5c4CCN3C[C@H]2C[C@@H](OC(=O)c2ccc(N)cc2)[C@@H]1OC`, the T/C is, setting by setting: under setting [9], 97 % of control; under setting [10], 87 % of control; under setting [11], 94 % of control.

As to `C=C1CCC2C(OC(=O)C2(O)COC(C)=O)C2C(=C)C(OC(C)=O)CC12` (stereo not drawn), the T/C by setting is: (dose: 9.38 mg/kg/injection, schedule: Q01DX005 (ip), vehicle: Klucel (hydroxypropylcellulose) (HPC)) 106 % of control; (dose: 18.75 mg/kg/injection, schedule: Q01DX005 (ip), vehicle: Klucel (hydroxypropylcellulose) (HPC)) 100 % of control; (dose: 37.5 mg/kg/injection, schedule: Q01DX005 (ip), vehicle: Klucel (hydroxypropylcellulose) (HPC)) 98 % of control; (dose: 75.0 mg/kg/injection, schedule: Q01DX005 (ip), vehicle: Klucel (hydroxypropylcellulose) (HPC)) 100 % of control; (dose: 150.0 mg/kg/injection, schedule: Q01DX005 (ip), vehicle: Klucel (hydroxypropylcellulose) (HPC)) 99 % of control.

Regarding `CCOc1c(N=Nc2ccc(Cl)cc2)c(-c2ccccc2)nn1C(=S)S`, the T/C was 97 % of control under setting [9], 99 % of control under setting [10] and 91 % of control under setting [11].

With `O=C(Nc1ccc(-c2ccc(NC(=O)C34CC5CC(CC(C5)C3)C4)cc2)cc1)C12CC3CC(CC(C3)C1)C2`, the T/C is, setting by setting: (dose: 25.0 mg/kg/injection, schedule: Q01DX005 (ip), vehicle: Klucel (hydroxypropylcellulose) (HPC)) 98 % of control and 100 % of control; under setting [6], 101 % of control; under setting [7], 89 % of control and 92 % of control; under setting [8], 97 % of control.

With `Cc1c(COC(=O)NC2CCCCC2)c(COC(=O)NC2CCCCC2)c2c3ccccc3c3ccccc3n12`, the T/C (dose: 12.5 mg/kg/injection, schedule: Q01DX009 (ip), vehicle: distilled water + Tween-80) is 106 % of control; the T/C (dose: 25.0 mg/kg/injection, schedule: Q01DX009 (ip), vehicle: distilled water + Tween-80) was 100 % of control and 93 % of control; the T/C (dose: 50.0 mg/kg/injection, schedule: Q01DX009 (ip), vehicle: distilled water + Tween-80) is 101 % of control and 106 % of control; the T/C under setting [4] was 101 % of control and 110 % of control; the T/C under setting [5] was 110 % of control.

Regarding `C[C@@H]1CN(c2ccccc2)C[C@H](C)OS(=O)O1` (stereo partly drawn), the T/C was 105 % of control (dose: 50.0 mg/kg/injection, schedule: Q01DX001 (ip), vehicle: Klucel (hydroxypropylcellulose) (HPC)); 96 % of control under setting [6]; 103 % of control (dose: 100.0 mg/kg/injection, schedule: Q01DX001 (ip), vehicle: Klucel (hydroxypropylcellulose) (HPC)); 100 % of control under setting [7]; 97 % of control (dose: 200.0 mg/kg/injection, schedule: Q01DX001 (ip), vehicle: Klucel (hydroxypropylcellulose) (HPC)); 93 % of control under setting [8].
